From US20150239864A1, “3H-1,2-DITHIOCYCLOPENTENE-3-THIOKETONE COMPOUNDS AND APPLICATION THEREOF” (Soochow University, priority 2012, published 2015) come the findings set out here.

The subject of one assay is HT22 cells. Description: Glutamate-induced neural oxidative stress injury model in HT22 cells, survival by MTT. The assay is classed as cell-based, Mouse. The following applies: 5 mM glutamate added with compound at 1, 10, 50 or 100 μM, MTT after 24 h. As to the method:
Mouse Hippocampal neuron cell line HT22, 24-well culture plate (Corning), glutamic acid (Glutamate, Sigma), DMEM culture medium (GIBCO), fetal bovine serum (GIBCO), 3-(4,5-dimethylthiazol-2-yl)-2,5-diphenyltetrazolium bromide (MTT, Sigma), dimethyl sulfoxide (Sinopharm Group. Co. Ltd.), and microplate reader (TECAN).
2.1. Cell culture: HT22 cells were taken out of the liquid nitrogen container, and thawed quickly in a water-bath at 37° C. After that, the outside wall of cryopreservation tube was disinfected by alcohol wipes, and it was then placed in a clean bench. The cells were transferred to a centrifuge tube containing 10 ml medium and centrifuged at 1000 rpm for 3 min. After centrifugation, the supernatant was discarded, and 10 mL DMEM containing 10% FBS was added to the centrifuge tube. The mixture was vigorously pipetted to prepare a cell suspension. The cell suspension was inoculated to a 100×20 mm Petri dish. Cells were cultured at 37° C. and 5% CO2. When the cell density reached confluent, the cells were digested and seeded onto the wells of a 24-well plate at the density of 2×10^4/well.
2.2. Treatment and groups: after the cells were cultured in the 24-well plate for 24 hours, 5 mM glutamate was added together with the compound each synthesized in Example 1-10 or Example 13 at a final concentration of 1, 10, 50, or 100 μM. DMSO served as vehicle and was added to the cells of the control group at an equal volume. The viability of the cells was detected by MTT method 24 h after the treatment.
2.3. Detection by MTT: 50 μL, 0.5 mg/ml MTT was added to each well 24 h after the treatment of cells. The cells were further incubated at 37° C. and 5% CO2 for 4 h. Subsequently, the supernatant was discarded. The cells were lysed by adding 500 μL dimethyl sulfoxide (DMSO). The absorbance was detected at 570 nm by a microplate reader, which is positively correlated with survival rate of cells. The survival rate of the cells in the treatment groups was expressed as the percent of the survival rate of the cells without glutamate treatment. All data were expressed as mean±standard deviation (SD). Statistical analysis was carried out for all data using SPSS 17.0. The difference between the groups was tested by one way anova. P<0.01 was considered as very significant difference.

In another assay the test system is microglia cell line BV2. Nature of the assay: LPS-induced inflammatory response of microglia, nitrite by Griess reagent. The assay is classed as cell-based. The following applies: 200 ng/mL LPS, 24 h, compound at 10-100 μM, vs LPS alone, p<0.01. The procedure: Brain microglia cell line BV-2, 96-well culture plate (Corning, USA), DMEM medium (Hyclone, USA), fetal bovine serum (FBS) (GIBCO, USA), dimethyl sulfoxide (DMSO) (SIGMA, USA), Griess reagent (SIGMA, USA), sodium nitrite (ChemNet, China), microplate reader (BIO-RAD, USA)
2.1. Cell cultures: After taken out of the liquid nitrogen container, BV-2 cells were quickly placed in warm water at 37° C. and gently shaken for thawing. Subsequently, it was centrifuged at 1000 rpm for 3 min, and the supernatant was discarded. […] When 60%-70% of confluence of the passaged cells was achieved, the cells were harvested by centrifugation at 1000 rpm for 3 min. The cells were then stained by trypan blue and counted under a microscope by globulimeter. After cell counting, it was diluted into a suspension containing 150 to 200 thousand of cells/ml, which was then plated in the 96-well plate (15 to 20 thousand of […]).
2.2. Treatment and groups: after the cells were cultured in the […] for 24 h, 200 ng/mL LPS was added together with compound YC1-1 of Example 1, YC1-8 of Example 8 and YC2-2 of Example 12 at a final concentration of 1, 10, 50, or 100 μM. DMSO served as vehicle and was added to the cells of control group at the equal volume. The cells were further incubated in an incubator.
2.3. The amount of nitrite produced was detected 24 h after the atreatment, to characterize the inflammatory response of BV2 cells induced by LPS and the inhibitory effect of compound YC1-1 of Example 1 and compound YC1-8 of Example 8 on the LPS-induced inflammatory response.
Detection method of nitrite: […], supernatant was taken out of the wells of 96-well plate, and added to the corresponding wells of another clean 96-well plate. Subsequently, 50 μL Griess reagent was added to each well, and the OD value was detected at 570 nm. The amount of nitrite was calculated based on the standard curve. The result was expressed as the relative yield of nitrite, wherein the relative yield of the control group treated only by LPS was designated as 1. All data were expressed as mean±standard deviation (SD). […]

The subject of assay [1] is mouse middle cerebral artery occlusion model. Description: Mouse middle cerebral artery occlusion (MCAO) model, infarct volume by TTC staining. It counts as in vivo. The following applies: half at 3 h and half at 10 h of reperfusion, 24 h after MCAO, vs vehicle, p<0.05. The procedure: Male ICR mice (body weight of 30±2.0 g) were purchased from Shanghai Laboratory Animal Center, Chinese Academy of Sciences. The mice were raised at room temperature and 12 h cycle of light and dark, with free access to food and water.
2.1. Middle cerebral artery occlusion (MCAO) model: the middle cerebral artery occlusion (MCAO) model was performed by reference to Longa's method or other modified suture-occluded method. The specific experimental procedures were as follows: after anaesthetized by isoflurane, the mouse was fixed in supine position, and the skin of neck and head was sterilized using iodine. The probe of laser-Doppler blood flowmeter was fixed at the midpoint of the line between the ear and the eye on the right side of the mouse to monitor the real-time perfusion in the cerebral cortex. A 1.5 cm incision was made in the middle of the neck to expose common carotid artery on the right side. Tissues were separated under an operating microscope layer by layer. The common carotid artery was first separated which was temporarily ligated 0.5 cm away from the distal end using 5-0 suture. Then, the external carotid artery and internal carotid artery on the right side were subsequently separated and the external carotid artery was ligated 0.5 cm away from the distal end using 5-0 suture. At the same time, the internal carotid artery was temporarily clamped using a mini vascular clamp. Subsequently, a small incision was made by an ophthalmic scissor on the inner side of the ligation at the distal end of the external carotid artery. To occlude the […], one of the ends of the suture was slightly enlarged by heating, coated by silica gel, and sterilized using alcohol. The length of the suture was about 2 cm, and the diameter of the enlarged end was […]. The suture was held using a fine forceps and inserted into the incision on the external carotid artery.). Once the suture passed through the incision of the external carotid artery, the ligation was lifted at the distal end of external carotid artery until the enlarged end of the suture entered the bifurcation of the […]. The suture was then tightened, and the vascular clamp on the internal carotid artery was opened. […] The starting time for occlusion was recorded. For reperfusion, the suture was withdrawn 60 min after middle cerebral artery occlusion. The rectal temperature was maintained at 37.0±0.5° C. by a heating blanket during and after the surgery, until the animal was revived.
2.2 Animal groups and drug administration: the animals were randomly divided into 3 groups, including control group treated with vehicle, YC1-8 group (100 mg/kg) and YC1-8 group (50 mg/kg). There were 8 mice in each group. 12 mg YC1-8 was initially dissolved by 80 μL DMSO, and then diluted by 920 μL corn oil to prepare a solution with the final concentration of 12 mg/mL. One half of dosage of compound YC1-8 was initially administrated at 3 h of reperfusion after ischemia by intraperitoneal injection, while the other half of dosage was administrated at 10 h of reperfusion after ischemia. For the control group, the same volume of DMSO-containing corn oil was administrated to the mice at 3 h and 10 h.
2.3. Detection of the cerebral infarct volumes: 24 h after reperfusion following mouse middle cerebral artery occlusion (MCAO), the mice were sacrificed under anesthetized and the brain was collected. After the brain tissue was stripped off, the olfactory bulb and cerebellum were removed. A series of 5 coronary sections of brain were made at an interval of 1 mm, which were then placed in 2% TTC solution at 37° C. under darkness in a warm bath. The sections were turned over every 15 min, with a total duration of 30 min. The size of cerebral infarction was determined by TTC staining method. Due to the reduction of TTC by […] in mitochondrion, normal brain tissue was red, and the ischemic infarct area was white. […]

Turning to `S=c1cc(-c2cccs2)ss1` [YC1-3, 5-(2-thienyl)-3H-1,2-dithiacyclopentene-3-thione], the “Concentration range for protection” value in the assay on HT22 cells lay in the range of 10 to 100 µM. As for `CC(=O)Oc1ccccc1C(=O)Oc1ccc(-c2cc(=S)ss2)cc1` [YC2-2, 4-(3H-1,2-dithio-3-thioketone-5-yl)phenyl 2-acetoxy benzoate], the “LPS induced inflammatory response of BV2 cells (nitrite production)” value (“LPS induced inflammatory response” below) with microglia cell line BV2 was “significantly inhibited”.

On to `Fc1ccc(-c2cc(=S)ss2)cc1` [YC1-2, 5-p-fluorophenyl-3H-1,2-dithiacyclopentene-3-thione], for which the “Concentration range for protection” value with HT22 cells is 10 to 100 µM. In the case of `O=C(Oc1ccc(-c2cc(=S)ss2)cc1)c1cccnc1` [YC2-3, 4-(3H-1,2-dithio-3-thioketone-5-yl)phenyl pyridine-3-carboxylate], the “Concentration range for protection” value with HT22 cells was in the range of 50 to 100 µM.

On to `Oc1ccc(-c2cc(=S)ss2)cc1` [YC1-1, 5-p-hydroxyphenyl-3H-1,2-dithiacyclopentene-3-thione], for which, in the assay on HT22 cells, the “Concentration range for protection” value was 10 to 100 µM. For the same molecule, the “LPS induced inflammatory response” value in the assay with microglia cell line BV2 is “significantly inhibited”. As for `Fc1cc(-c2cc(=S)ss2)c(Cl)cc1Cl` [YC1-5, 5-(2,4-dichloro-5-fluorophenyl)-3H-1,2-dithiacyclopentene-3-thione], the “Concentration range for protection” value in the assay with HT22 cells fell in the range of 1 to 100 µM.

`COc1ccc(-c2cc(=S)ss2)c(OC)c1` [YC1-7, 5-(2,4-dimethoxyphenyl)-3H-1,2-dithiacyclopentene-3-thione]: the “Concentration range for protection” value with HT22 cells is 1 to 100 µM. As to `COc1ccc(-c2cc(=S)ss2)cc1` [YC1-8, 5-p-methoxyphenyl-3H-1,2-dithiacyclopentene-3-thione], in the assay with HT22 cells, the “Concentration range for protection” value is 10 to 100 µM. The “LPS induced inflammatory response” value in the assay with microglia cell line BV2 was “significantly inhibited”. Also, in assay [1] (50 mg/kg YC1-8 i.p.), the “infarction volume in cerebral cortex” value is recorded as “significantly reduced”, the “infarction volume in hemisphere” value was “significantly reduced” and the “infarction volume in striatum” value was “significantly reduced”. In assay [1] (100 mg/kg YC1-8 i.p.), the “infarction volume in cerebral cortex” value was “significantly reduced”, the “infarction volume in hemisphere” value is on record as “significantly reduced” and the “infarction volume in striatum” value was “significantly reduced”. On to `S=c1cc(-c2ccc3ccccc3c2)ss1` [YC1-10, 5-(2-naphthyl)-3H-1,2-dithiacyclopentene-3-thione], for which the “Concentration range for protection” value in the assay on HT22 cells was 1 to 100 µM. Take `S=c1cc(-c2ccc3c(c2)OCO3)ss1` [YC1-6, 5-(3,4-methylenedioxyphenyl)-3H-1,2-dithiacyclopentene-3-thione]: in the assay on HT22 cells, the “Concentration range for protection” value is 1 to 100 µM. With `S=c1cc(-c2ccccc2)ss1` [YC1-9, 5-phenyl-3H-1,2-dithiacyclopentene-3-thione], the “Concentration range for protection” value in the assay with HT22 cells was in the range of 1 to 100 µM. Same read-out and setting: in the case of `Cc1ccc(-c2cc(=S)ss2)cc1` [YC1-4, 5-p-methylphenyl-3H-1,2-dithiacyclopentene-3-thione] it was 10 to 100 µM.
